Patent US10208009B2, “Hydroxyl pyranone compound, method for producing same, and cosmetics composition comprising compound” (AMOREPACIFIC CORPORATION, priority 2015, dated 2019)

System: human adipose tissue derived mesenchymal stem cells (hAT-MSCs)
Experiment: Adipocyte differentiation promoting effect: adiponectin expression (ELISA) in differentiating mesenchymal stem cells
Assay type: cell-based
Set-up: Adiponectin (pg/ml, Avg ± S.D.): unit of the concentration uncertain
Conditions: for Adiponectin (pg/ml, Avg ± S.D.): medium collected on 14th day, ELISA; for expression level of adiponectin (in words): IDX differentiation medium + material, 14th day, summary of Table 1
Procedure: In order to examine the adipocyte differentiation promoting effect of the compounds prepared in the Example, the following test was carried out.
Adiponectin is a typical protein hormone secreted from adipocytes. It has been reported that as adipocytes are differentiated, the expression of adiponectin is increased. Therefore, the adipocyte differentiation promoting effect was confirmed by measuring the amount of adiponectin expressed in the cell culture medium when treated with the novel compound of the present invention, which is an indicator of adipocyte differentiation promoting.
The adipocyte differentiation was performed by culturing human adipose tissue derived mesenchymal stem cells (hAT-MSCs) from Lonza Inc. (Walkersville, Md., USA) according to Lonza's guidelines. The adipocyte differentiation was carried out using the method recommended by Lonza Inc., except that the adipocyte differentiation of adipose-derived mesenchymal stem cells is induced by using troglitazone (TRO) instead of indomethacin. Specifically, the mesenchymal stem cells were differentiated into adipocytes by adding the medium for adipocyte differentiation (hereinafter referred to as IDX), which was prepared by mixing […] of insulin, […] of Dexamethasone (DEXA), 0.5 mM of isobutylmethylxanthine (IBMX) and […] of TRO, to the culture medium of mesenchymal stem cells, and then culturing it.
In order to determine the expression level of adiponectin, after the medium for adipocyte differentiation was collected on the 14th day of differentiation, the amount of adiponectin was quantified using the Adiponectin ELISA Kit (R & D systems, Cat. No. DY1065) (each data value was corrected by the control group). The specific measurement method using Adiponectin ELISA Kit was as follows.
First, the capture antibody was reacted in a 96-well plate, washed with washing buffer solution, and then the material shown in Table 1 below was added and reacted at room temperature for 2 hours. Thereafter, while washing three times every time when going through each step, the detection antibody, the HRP enzyme, the substrate solution, and the stop solution were added in order and reacted for the time indicated in the protocol. After the final reaction, the absorbance was measured at a wavelength of 450 nm using a spectrophotometer.

[1] = IDX differentiation medium + material at 60 (unit uncertain)

Row | Structure (SMILES) | Adiponectin (pg/ml, Avg ± S.D.) (IDX differentiation medium + material (concentration not given)) [pg/mL] | Adiponectin (pg/ml, Avg ± S.D.) (IDX differentiation medium + material at 400 (unit uncertain)) [pg/mL] | expression level of adiponectin (in words) | Adiponectin (pg/ml, Avg ± S.D.) [1] [pg/mL]
1 | COc1ccc(Cl)cc1C(=O)NCCc1ccc(S(=O)(=O)NC(=O)NC2CCCCC2)cc1 [Glibenclamide] | 1920 ± 100 |  |  | 
2 | O=c1cc(CO)occ1O [Kojic acid] |  | 303 ± 98 | not increased | 
3 | O=C(/C=C/c1ccc2c(c1)OCO2)OCc1cc(=O)c(O)co1 [Seletinoid G] |  |  |  | 1505 ± 109
4 | CC1=CCCC(C)(C)C1/C=C/C(=O)OCc1cc(=O)c(O)co1 (stereo not drawn) [compound of example (Formula 1), 3-(2,6,6-trimethyl-cyclohex-2-enyl)-propenoic acid 5-hydroxy-4-oxo-4H-pyran-2-ylmethyl ester] |  |  | increases almost similarly to that with Glibenclamide | 1730 ± 120
